Assay results from patent US12252524B2, “GIP/GLP1 co-agonist compounds” (Eli Lilly and Company, priority 2018, dated 2025).
Numbered stars: 1 amine (or outer) side, 2 acyl side, 3 side chain; on linkers, the order of the positions; unused ones are H or OH. Square brackets hold non-standard residues; d marks the D form. Side chains are listed from the residue outwards. Peptide text beside a SMILES is read from it. * marks the point of attachment. C20 diacid = O=C(O)CCCCCCCCCCCCCCCCCCC(=O)*; C18 diacid = O=C(O)CCCCCCCCCCCCCCCCC(=O)*; αMePhe(2-F) = C[C@](N)(Cc1ccccc1F)C(=O)O; γGlu = O=C(O)[C@H](CCC(=O)[*:2])N[*:1]; αMeF = C[C@](N)(Cc1ccccc1)C(=O)O; αMeL = CC(C)C[C@](C)(N)C(=O)O; AEEA = NCCOCCOCC(=O)O; Aib = CC(C)(N)C(=O)O

Tests used:
[1] = target: human GLP-1 receptor (GLP-1R) (Homo sapiens, UniProt P43220); test: cAMP pharmacological functional assay in presence of casein, hGLP-1R; assay type: cell-based; settings: HEK293 cells expressing hGLP-1R, 0.1% Casein, geometric mean; read-out: hGLP1R cAMP Rel EC50 nM (SEM, n)
Sequence of human GLP-1 receptor (GLP-1R) (P43220 24-463): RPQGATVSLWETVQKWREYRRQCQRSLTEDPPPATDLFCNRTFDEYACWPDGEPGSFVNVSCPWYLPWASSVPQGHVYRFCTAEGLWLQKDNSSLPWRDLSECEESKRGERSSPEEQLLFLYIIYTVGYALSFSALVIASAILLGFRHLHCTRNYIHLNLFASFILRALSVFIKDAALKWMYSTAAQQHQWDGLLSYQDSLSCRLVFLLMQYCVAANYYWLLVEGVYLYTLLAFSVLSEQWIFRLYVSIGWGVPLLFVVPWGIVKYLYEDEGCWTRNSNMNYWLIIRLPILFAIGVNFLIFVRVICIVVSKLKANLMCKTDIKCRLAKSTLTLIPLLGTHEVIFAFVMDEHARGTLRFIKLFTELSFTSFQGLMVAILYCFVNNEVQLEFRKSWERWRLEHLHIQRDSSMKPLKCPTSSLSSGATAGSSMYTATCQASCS

[2] = target: T1, gastric inhibitory peptide receptor (GIPR) (Homo sapiens, UniProt P48546); test: cAMP pharmacological functional assay in presence of casein, hGIPR; assay type: cell-based; settings: HEK293 cells expressing hGIPR, 0.1% Casein, geometric mean; read-out: hGIPR cAMP Rel EC50 nM (SEM, n)
T1 sequence (P48546 22-466): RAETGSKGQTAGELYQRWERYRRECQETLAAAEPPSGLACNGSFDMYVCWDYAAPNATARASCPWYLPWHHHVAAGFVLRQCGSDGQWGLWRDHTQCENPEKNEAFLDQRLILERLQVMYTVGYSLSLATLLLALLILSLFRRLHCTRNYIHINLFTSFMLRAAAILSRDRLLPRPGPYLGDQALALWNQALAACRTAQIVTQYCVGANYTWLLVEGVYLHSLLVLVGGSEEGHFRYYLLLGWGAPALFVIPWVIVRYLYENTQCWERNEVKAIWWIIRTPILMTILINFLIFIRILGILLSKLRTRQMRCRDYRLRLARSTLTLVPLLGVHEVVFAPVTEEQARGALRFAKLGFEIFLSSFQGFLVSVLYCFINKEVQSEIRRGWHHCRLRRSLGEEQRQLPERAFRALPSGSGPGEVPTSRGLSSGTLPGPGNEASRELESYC

Structure (SMILES)	EC50 [1] [nM]	EC50 [2] [nM]
CC[C@H](C)[C@H](NC(=O)[C@H](CC(C)C)NC(=O)[C@H](Cc1ccc(O)cc1)NC(=O)[C@@H](CCC(=O)O)NC(=O)[C@@H](NC(=O)[C@H](Cc1ccccc1)NC(=O)[C@@H](NC(=O)C(C)(C)NC(=O)[C@H](CCC(N)=O)NC(=O)[C@H](C)NC(=O)[C@H](CCCCNC(=O)COCCOCCNC(=O)COCCOCCNC(=O)CC[C@H](NC(=O)CCCCCCCCCCCCCCCCCCC(=O)O)C(=O)O)NC(=O)[C@H](CCC(=O)O)NC(=O)[C@H](CC(=O)O)NC(=O)[C@H](CC(C)C)NC(=O)[C@](C)(CC(C)C)NC(=O)[C@@H](NC(=O)[C@H](CO)NC(=O)[C@H](Cc1c[nH]cn1)NC(=O)[C@H](CC(=O)O)NC(=O)[C@H](CO)NC(=O)[C@@H](NC(=O)[C@](C)(Cc1ccccc1F)NC(=O)[C@@H](NC(=O)CNC(=O)[C@H](CCC(=O)O)NC(=O)C(C)(C)NC(=O)[C@@H](N)Cc1ccc(O)cc1)[C@@H](C)O)[C@@H](C)O)[C@@H](C)CC)[C@@H](C)O)[C@@H](C)CC)C(=O)N[C@H](CCC(=O)O)C(=O)NCC(=O)NCC(=O)N1CCC[C@H]1C(=O)N[C@@H](CO)C(=O)N[C@@H](CO)C(=O)NCC(=O)N[C@@H](C)C(=O)N1CCC[C@H]1C(=O)N1CCC[C@H]1C(=O)N1CCC[C@H]1C(=O)N[C@@H](CO)C(N)=O [Example 164] (H-Y[Aib]EGT[αMePhe(2-F)]TSDHSI[αMeL]LDEK([AEEA-AEEA-γGlu-C20 diacid])AQ[Aib]TFI[dE]YLI[dE]GGPSSGAPPPS-NH2)	15.6	3.09
CC[C@H](C)[C@H](NC(=O)[C@H](CC(C)C)NC(=O)[C@](C)(Cc1ccccc1)NC(=O)[C@@H](CCC(=O)O)NC(=O)[C@@H](NC(=O)[C@H](Cc1ccccc1)NC(=O)[C@@H](NC(=O)C(C)(C)NC(=O)[C@H](CCC(N)=O)NC(=O)[C@H](C)NC(=O)[C@H](CCCCNC(=O)COCCOCCNC(=O)COCCOCCNC(=O)CC[C@H](NC(=O)CCCCCCCCCCCCCCCCCCC(=O)O)C(=O)O)NC(=O)[C@H](CCC(=O)O)NC(=O)[C@H](CC(=O)O)NC(=O)[C@H](CC(C)C)NC(=O)[C@](C)(CC(C)C)NC(=O)[C@@H](NC(=O)[C@H](CO)NC(=O)[C@H](Cc1c[nH]cn1)NC(=O)[C@H](CC(=O)O)NC(=O)[C@H](CO)NC(=O)[C@@H](NC(=O)[C@](C)(Cc1ccccc1F)NC(=O)[C@@H](NC(=O)CNC(=O)[C@H](CCC(=O)O)NC(=O)C(C)(C)NC(=O)[C@@H](N)Cc1ccc(O)cc1)[C@@H](C)O)[C@@H](C)O)[C@@H](C)CC)[C@@H](C)O)[C@@H](C)CC)C(=O)N[C@H](CCC(=O)O)C(=O)NCC(=O)NCC(=O)N1CCC[C@H]1C(=O)N[C@@H](CO)C(=O)N[C@@H](CO)C(=O)NCC(=O)N[C@@H](C)C(=O)N1CCC[C@H]1C(=O)N1CCC[C@H]1C(=O)N1CCC[C@H]1C(=O)N[C@@H](CO)C(N)=O [Example 165] (H-Y[Aib]EGT[αMePhe(2-F)]TSDHSI[αMeL]LDEK([AEEA-AEEA-γGlu-C20 diacid])AQ[Aib]TFI[dE][αMeF]LI[dE]GGPSSGAPPPS-NH2)	5.81	1.04
CC[C@H](C)[C@H](NC(=O)[C@H](CC(C)C)NC(=O)[C@H](Cc1ccc(O)cc1)NC(=O)[C@@H](CCC(=O)O)NC(=O)[C@@H](NC(=O)[C@H](Cc1ccccc1)NC(=O)[C@@H](NC(=O)C(C)(C)NC(=O)[C@H](CCC(N)=O)NC(=O)[C@H](C)NC(=O)[C@H](CCCCNC(=O)COCCOCCNC(=O)COCCOCCNC(=O)CC[C@H](NC(=O)CCCCCCCCCCCCCCCCCCC(=O)O)C(=O)O)NC(=O)[C@H](CCC(=O)O)NC(=O)[C@H](CC(=O)O)NC(=O)[C@H](CC(C)C)NC(=O)[C@](C)(CC(C)C)NC(=O)[C@@H](NC(=O)[C@H](CO)NC(=O)[C@H](Cc1c[nH]cn1)NC(=O)[C@H](CC(=O)O)NC(=O)[C@H](CO)NC(=O)[C@@H](NC(=O)[C@](C)(Cc1ccccc1F)NC(=O)[C@@H](NC(=O)CNC(=O)[C@H](CCC(=O)O)NC(=O)C(C)(C)NC(=O)[C@@H](N)Cc1ccc(O)cc1)[C@@H](C)O)[C@@H](C)O)[C@@H](C)CC)[C@@H](C)O)[C@@H](C)CC)C(=O)N[C@@H](CCC(=O)O)C(=O)NCC(=O)NCC(N)=O [Example 166] (H-Y[Aib]EGT[αMePhe(2-F)]TSDHSI[αMeL]LDEK([AEEA-AEEA-γGlu-C20 diacid])AQ[Aib]TFI[dE]YLIEGG-NH2; N-terminus assumed)	4.08	0.355
CC[C@H](C)[C@H](NC(=O)[C@H](CC(C)C)NC(=O)[C@H](Cc1ccc(O)cc1)NC(=O)[C@@H](CCC(=O)O)NC(=O)[C@@H](NC(=O)[C@H](Cc1ccccc1)NC(=O)[C@@H](NC(=O)C(C)(C)NC(=O)[C@H](CCC(N)=O)NC(=O)[C@H](C)NC(=O)[C@H](CCCCNC(=O)COCCOCCNC(=O)COCCOCCNC(=O)CC[C@H](NC(=O)CCCCCCCCCCCCCCCCCCC(=O)O)C(=O)O)NC(=O)[C@H](CCC(=O)O)NC(=O)[C@H](CC(=O)O)NC(=O)[C@H](CC(C)C)NC(=O)[C@](C)(CC(C)C)NC(=O)[C@@H](NC(=O)[C@H](CO)NC(=O)[C@H](Cc1c[nH]cn1)NC(=O)[C@H](CC(=O)O)NC(=O)[C@H](CO)NC(=O)[C@@H](NC(=O)[C@](C)(Cc1ccccc1F)NC(=O)[C@@H](NC(=O)CNC(=O)[C@H](CCC(=O)O)NC(=O)C(C)(C)NC(=O)[C@@H](N)Cc1ccc(O)cc1)[C@@H](C)O)[C@@H](C)O)[C@@H](C)CC)[C@@H](C)O)[C@@H](C)CC)C(=O)N[C@@H](CCC(=O)O)C(=O)NCC(=O)NCC(=O)N1CCC[C@H]1C(=O)N[C@@H](CO)C(=O)N[C@@H](CO)C(=O)NCC(N)=O [Example 167] (H-Y[Aib]EGT[αMePhe(2-F)]TSDHSI[αMeL]LDEK([AEEA-AEEA-γGlu-C20 diacid])AQ[Aib]TFI[dE]YLIEGGPSSG-NH2)	1.2	0.617
CC[C@H](C)[C@H](NC(=O)[C@H](CC(C)C)NC(=O)[C@H](Cc1ccc(O)cc1)NC(=O)[C@@H](CCC(=O)O)NC(=O)[C@@H](NC(=O)[C@H](Cc1ccccc1)NC(=O)[C@@H](NC(=O)C(C)(C)NC(=O)[C@H](CCC(N)=O)NC(=O)[C@H](C)NC(=O)[C@H](CCCCNC(=O)COCCOCCNC(=O)COCCOCCNC(=O)CC[C@H](NC(=O)CCCCCCCCCCCCCCCCCCC(=O)O)C(=O)O)NC(=O)[C@H](CCC(=O)O)NC(=O)[C@H](CC(=O)O)NC(=O)[C@H](CC(C)C)NC(=O)[C@](C)(CC(C)C)NC(=O)[C@@H](NC(=O)[C@H](CO)NC(=O)[C@H](Cc1c[nH]cn1)NC(=O)[C@H](CC(=O)O)NC(=O)[C@H](CO)NC(=O)[C@@H](NC(=O)[C@](C)(Cc1ccccc1F)NC(=O)[C@@H](NC(=O)CNC(=O)[C@H](CCC(=O)O)NC(=O)C(C)(C)NC(=O)[C@@H](N)Cc1ccc(O)cc1)[C@@H](C)O)[C@@H](C)O)[C@@H](C)CC)[C@@H](C)O)[C@@H](C)CC)C(=O)N[C@@H](CCC(=O)O)C(=O)NCC(=O)NCC(=O)N1CCC[C@H]1C(=O)N[C@@H](CO)C(=O)N[C@@H](CO)C(=O)NCC(=O)N[C@@H](C)C(=O)N1CCC[C@H]1C(=O)N1CCC[C@H]1C(=O)N1CCC[C@H]1C(=O)N[C@@H](CO)C(N)=O [Example 168] (H-Y[Aib]EGT[αMePhe(2-F)]TSDHSI[αMeL]LDEK([AEEA-AEEA-γGlu-C20 diacid])AQ[Aib]TFI[dE]YLIEGGPSSGAPPPS-NH2)	1.8	0.572
CC[C@H](C)[C@H](NC(=O)[C@H](CC(C)C)NC(=O)[C@H](Cc1ccc(O)cc1)NC(=O)[C@@H](CCC(=O)O)NC(=O)[C@@H](NC(=O)[C@H](Cc1ccccc1)NC(=O)[C@@H](NC(=O)C(C)(C)NC(=O)[C@H](CCC(N)=O)NC(=O)[C@H](C)NC(=O)[C@H](CCCCNC(=O)COCCOCCNC(=O)COCCOCCNC(=O)CC[C@H](NC(=O)CCCCCCCCCCCCCCCCC(=O)O)C(=O)O)NC(=O)[C@H](CCC(=O)O)NC(=O)[C@H](CC(=O)O)NC(=O)[C@H](CC(C)C)NC(=O)[C@](C)(CC(C)C)NC(=O)[C@@H](NC(=O)[C@H](CO)NC(=O)[C@H](Cc1c[nH]cn1)NC(=O)[C@H](CC(=O)O)NC(=O)[C@H](CO)NC(=O)[C@@H](NC(=O)[C@](C)(Cc1ccccc1F)NC(=O)[C@@H](NC(=O)CNC(=O)[C@H](CCC(=O)O)NC(=O)C(C)(C)NC(=O)[C@@H](N)Cc1ccc(O)cc1)[C@@H](C)O)[C@@H](C)O)[C@@H](C)CC)[C@@H](C)O)[C@@H](C)CC)C(=O)N[C@@H](CCC(=O)O)C(=O)NCC(=O)NCC(=O)N1CCC[C@H]1C(=O)N[C@@H](CO)C(=O)N[C@@H](CO)C(=O)NCC(=O)N[C@@H](C)C(=O)N1CCC[C@H]1C(=O)N1CCC[C@H]1C(=O)N1CCC[C@H]1C(=O)N[C@@H](CO)C(N)=O [Example 169] (H-Y[Aib]EGT[αMePhe(2-F)]TSDHSI[αMeL]LDEK([AEEA-AEEA-γGlu-C18 diacid])AQ[Aib]TFI[dE]YLIEGGPSSGAPPPS-NH2)	3.37	0.86
